Among the data in paper PMC10098062 (Molecular Plant Pathology, 2023) are Kd values, retold here.

For this test, the target named is T1, SstF (SFN-sensing transcription factor, LysR family) (Xanthomonas campestris, UniProt Q8PAP2).
T1 sequence (Q8PAP2 1-344): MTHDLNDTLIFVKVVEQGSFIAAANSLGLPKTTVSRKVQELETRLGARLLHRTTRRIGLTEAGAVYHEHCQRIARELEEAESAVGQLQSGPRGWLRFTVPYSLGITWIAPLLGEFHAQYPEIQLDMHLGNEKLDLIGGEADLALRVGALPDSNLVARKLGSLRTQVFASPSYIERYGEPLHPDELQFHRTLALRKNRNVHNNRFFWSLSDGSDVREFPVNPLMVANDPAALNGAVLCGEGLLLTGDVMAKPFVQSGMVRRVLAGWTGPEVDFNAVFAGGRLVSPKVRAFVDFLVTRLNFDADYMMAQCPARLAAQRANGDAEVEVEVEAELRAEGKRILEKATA
Put plainly: SPR. Type of test: binding.

Turning to `C[S+]([O-])CCCCN=C=S` (stereo not shown) [SFN, Sulforaphane], the affinity, expressed as Kd, was 17.3 nM.
